# Patent US20200080052A1, “METHOD OF REDUCING CHROMOSOME SEGREGATION ERROR IN CELLS OF THE EARLY EMBRYO” (CENTRE HOSPITALIER DE L'UNIVERSITÉ DE MONTRÉAL, priority 2018, published 2020)
# What was measured:
# mouse embryos [1] = experiment: Culture to blastocyst and immunofluorescence analysis (development, cell numbers, micronuclei per cell); format: cell-based; settings: for micronuclei per cell in blastocyst: 2-cell stage to blastocyst, controls 0.022, P<0.05; for number of micronuclei compared to controls: P<0.01
# Protocol: (§1) Embryo collection, culture and chemical treatments. All experiments were approved by the Centre de Recherche du Centre Hospitalier de l'Université de Montréal (CRCHUM) Comité Institutionnel de Protection des Animaux (CIPA). Two-cell embryos were obtained from superovulated 2-3-month-old CD-1 female mice mated with CD-1 males. Embryos were collected in M2 media and cultured in KSOM media drops covered in mineral oil at 37° C. in 5% CO2. For chemical treatments, media was supplemented with the following compounds: AZ3146 (20 μM), GSK923295 (various concentrations), nocodazole (various concentrations), Cytochalasin B (5 μg/ml), MG132 (25 μM), proTAME (various concentrations). All drug stocks are dissolved in DMSO. For experiments involving proTAME, embryos were cultured without oil in 500 μL of media in 4-well plates.
# (§2) Z-stack images of embryos (˜50 μm) with step size 2 μm were obtained at a time interval of 30 sec for experiments concerning H2BRFP only, 2 min for H2B:RFP-GAP43:GFP, and 3 min H2B:RFP-Mad1:EGFP experiments. For live-cell experiments at two-cells, eight cell, morula and blastocyst, imaging was started at ˜48 h, 72 h, 84 h and ˜96 h post-hCG administration and mating, respectively. For immunofluorescence embryos were fixed in 2% PFA in PBS (20 min) and permeabilised in 0.25% Triton™ X-100 in PBS (10 min), for Mad2 immunofluorescence embryos were fixed for 15 min in PHEM buffer containing 2% PFA and 0.05% Triton™ X-100, and permeabilised in 0.05% Triton™ X in PHEM buffer for 15 min. Blocking was performed in 3% bovine serum albumin in PBS, for 1 hr at 37° C. or overnight at 4° C. Primary antibodies used were rabbit anti-Mad2 (1:300), mouse anti-alpha-Tubulin (1:1000), anti-rabbit and anti-mouse AlexaFluor secondaries were used at 1:1000 dilution. Alexa-555-Phalloidin (1:300) and Hoechst (1:1000) were used to visualize F-actin and DNA, respectively. Briefly, immunofluorescence confocal imaging was performed on a Leica™ SP8 microscope using a 63×1.4 NA oil objective lens, using a 1.5 μm optical section and acquiring Z-stacks with a step size of 1.5 μm, described in more detail in (Vázquez-Diez et al., 2018). In fixed-cell experiments involving GSK923295 and nocodazole embryos were exposed from the 8-cell stage, ˜72 h post-hCG and mating for ˜16 h and immediately fixed. Blastocyst immunofluorescence analysis was performed at late blastocyst stage, ˜120 h post-hCG.
# (§3) All image analysis was performed using Fiji software. Time-lapse Z-stacks were examined to determine mitosis duration and identify chromosome alignment and segregation errors. Spindle length measurements were performed measuring the distance between spindle poles, using Pythagoras' theorem where spindle poles were located on different Z-slices. Mad2 Immunofluorescence was quantified by subtracting nuclear envelope and background maximum grey values. To calculate cell volume for each cell at metaphase, areas delineated by the cell membrane (GAP43:GFP signal) were manually traced and measured at each Z-slice, the sum of the areas was multiplied by the step size (2 μm). All data analysis was performed using GraphPad™ Prism, statistical test used were accordingly noted in figures, α=0.05.
# mouse embryos [2] = experiment: Live imaging of chromosome segregation dynamics in H2B:RFP-expressing embryos; format: cell-based; settings: for change in mitosis duration: 10 nM nocodazole
# Protocol: as §1
# (§4) All imaging was performed on a Leica™ SP8 confocal microscope with HyD detectors. For live imaging embryos were placed in a heated top-stage incubator with CO2 supply and imaged with a 20×0.75 NA objective as previously described (Vázquez-Diez et al., 2016). All imaging was performed in ˜2 μL drops under mineral oil, for experiments involving proTAME, embryos were cultured in Ibidi micro-insert wells mounted on a glass-bottom dish with distilled water and the inventors' setup was modified to provide humidified CO2 gas supply, previously described in extensive detail (Vázquez-Diez et al., 2018).
# as §2, §3
# mouse embryos [3] = experiment: Fixed-cell analysis of embryos after ~16 h exposure from the 8-cell stage (mitotic index, misaligned chromosomes, Mad2); format: cell-based; settings: for metaphase cells with multiple misaligned chromosomes: morulae, 16 hour exposure
# Protocol: as §1, §2, §3
# mouse embryos [4] = experiment: Live imaging of H2B:RFP and Mad1:EGFP-expressing embryos; format: cell-based; settings: 500 nM GSK923295
# Protocol: (§5) All micromanipulations were performed on a Leica™ DM14000 inverted microscope fitted with Narashige micromanipulators. […] Embryos where thoroughly washed in over a dozen drops of M2 media prior to transfer and incubation in equilibrated KSOM medium for at least 2 hours prior to imaging to allow them to recover from the cytoplasmic removal procedure. Microinjections were performed as described previously (Nakagawa and FitzHarris, 2016; Vázquez-Diez and FitzHarris, 2018; Vázquez-Diez et al., 2016). cRNA was synthesized using mMessenger Machine kit (Ambion) as previously (Nakagawa et al., 2017; Vázquez-Diez et al., 2018), from the following plasmids; pRN4-H2B:RFP, psC2-GAP43:GFP, MajSatTALE:mClover (pTALYM3B15)(Miyanari et al., 2013).
# as §4, with “2018). […]” for “2018).”
# mouse embryos [5] = experiment: Cytoplasmic removal and live imaging of H2B:RFP-GAP43:GFP embryos (mitosis duration vs cell volume); format: cell-based; settings: 10 nM nocodazole, un-manipulated or cytoplasmically reduced
# Protocol: as §5
# All imaging was performed on a Leica™ SP8 confocal microscope with HyD detectors. For live imaging embryos were placed in a heated top-stage incubator with CO2 supply and imaged with a 20×0.75 NA objective as previously described (Vázquez-Diez et al., 2016). […]
# All image analysis was performed using Fiji software. […] Mad2 Immunofluorescence was quantified by subtracting nuclear envelope and background maximum grey values. To calculate cell volume for each cell at metaphase, areas delineated by the cell membrane (GAP43:GFP signal) were manually traced and measured at each Z-slice, the sum of the areas was multiplied by the step size (2 μm). […]
# oocytes = experiment: Polar body extrusion (PBE) of meiosis-I in microinjected oocytes; format: cell-based, mouse; settings: oocytes microinjected with Mad2 MO vs Control MO
# [6] = 500 nM GSK923295, 8-16 cell transition
# [7] = proTAME 0.01 nM-100 nM from the 2-cell stage
compound,measurement,setting,value
Cc1ncc([N+](=O)[O-])n1CCOC(=O)NC(Nc1ncccn1)C(Cl)(Cl)Cl (stereo not drawn) [APCin],micronuclei,mouse embryos [1]; APCin 10 μM,reduction in micronuclei
CC(C)Oc1ccc(C(=O)N[C@H](CNC(=O)CN(C)C)Cc2ccc(-c3cn4cccc([C@H](C)O)c4n3)cc2)cc1Cl [GSK923295],"number of severely misaligned chromosomes at anaphase onset (span, all cases)",mouse embryos [2]; [6],"at least one, and as many as nine"
same,severely misaligned chromosomes at anaphase onset (mean),mouse embryos [2]; [6],3.6±0.3 per cell
same,NEBD to metaphase and metaphase to anaphase times,"mouse embryos [2]; 500 nM GSK, eight- to sixteen-cell division",extended
same,mitotic index,mouse embryos [3]; 500 nM GSK923295,23%
same,metaphase cells with multiple misaligned chromosomes,mouse embryos [3]; 500 nM GSK923295,93%
same,mitotic arrest with simultaneous nocodazole,"mouse embryos [3]; 1 μM nocodazole + 500 nM GSK923295, 16 hr",mounted a robust mitotic arrest
same,mitotic index,mouse embryos [3]; 5 μM GSK923295,12%
same,metaphase cells with multiple misaligned chromosomes,mouse embryos [3]; 5 μM GSK923295,100%
same,misaligned chromosomes at anaphase onset harbouring Mad1:GFP at kinetochores,mouse embryos [4],80%
same,misaligned chromosomes at anaphase onset (mean),mouse embryos [4]; H2B:RFP and Mad1:EGFP-expressing embryos,3.5±0.4 per cell
COC(=O)Nc1nc2ccc(C(=O)c3cccs3)cc2[nH]1 [nocodazole],change in mitosis duration,mouse embryos [2]; blastocysts (~32-64 cell stage),prolonged mitosis appreciably
same,change in mitosis duration,mouse embryos [2]; morulae (8-16 cell stage),only a minimal extension of mitosis
same,change in mitosis duration,mouse embryos [2]; two-cell stage,prolonged mitosis appreciably
same,Anaphase lagging chromosomes,mouse embryos [2]; nocodazole-treated (10 nM) morulae,19 % of divisions
same,mitotic index,"mouse embryos [3]; 100 nM nocodazole, 16-hour exposure",40%
same,mitotic index,"mouse embryos [3]; 1 μM nocodazole, 16-hour exposure",95%
same,Mad2 at kinetochores,mouse embryos [3]; nocodazole-treated cells,Mad2 was evident at kinetochores
same,change in mitosis duration,mouse embryos [5]; morulae,not in morulae
same,change in mitosis duration,mouse embryos [5]; two-cell stage,extended mitosis at the two-cell stage
COC(=O)[C@H](CCCN/C(=N\C(=O)OCOC(=O)Cc1ccccc1)NC(=O)OCOC(=O)Cc1ccccc1)NS(=O)(=O)c1ccc(C)cc1 [proTAME],extension of mitosis duration,mouse embryos [2]; 10 nM proTAME vs DMSO,19%
same,increase in duration of mitosis,mouse embryos [2]; 10 nM proTAME vs DMSO,~10 min
same,incidence of misaligned chromosomes at anaphase onset,"mouse embryos [2]; 10 nM proTAME, control 28%, P=0.025",16%
same,duration of mitosis,"mouse embryos [2]; 10 nM proTAME, morula stage, control 51.7±1.4, P<0.0001",61.7 ± 2.3 min
same,micronuclei per cell in blastocyst,mouse embryos [1]; 10 nM proTAME,0.013 micronuclei per cell
same,micronuclei per cell in blastocyst,"mouse embryos [1]; ""nM"" proTAME (figure missing)",0.012 micronuclei per cell
same,blastocyst cell number,mouse embryos [1]; [7],did not affect blastocyst cell number
same,embryo development to blastocyst,mouse embryos [1]; [7],permissive of development to blastocyst
same,embryo development to blastocyst,mouse embryos [1]; proTAME 1-10 μM from the 2-cell stage,prevented embryo development to blastocyst
AZ3146,duration of mitosis,"mouse embryos [2]; 20 μM AZ3146, 16-32C transition, control 53±3 mins, P<0.0001",33 ± 1 min
same,chromosomes remaining misaligned at anaphase onset,"mouse embryos [2]; 20 μM AZ3146, control 24%, P<0.0001",63%
same,blastocyst cell numbers,mouse embryos [1]; AZ3146 (20 μM),Neither treatment prevented development to blastocyst or altered cell numbers
same,development to blastocyst,mouse embryos [1]; AZ3146 (20 μM),Neither treatment prevented development to blastocyst
same,number of micronuclei compared to controls,mouse embryos [1]; AZ3146-treated embryos,doubled
same,reversal of nocodazole-induced mitotic arrest,mouse embryos [3]; 100 nM nocodazole and 20 μM AZ3146,the arrest was reversible
"Mad2 MO: morpholino oligonucleotide against Mad2, 5′-GCTCTCGGGCGAGCTGCTGTGCCAT-3′ (Gene tools LLC) (all phosphorodiamidate morpholino (PMO))",blastocyst cell numbers,mouse embryos [1]; Mad2 MO microinjected,Neither treatment prevented development to blastocyst or altered cell numbers
same,development to blastocyst,mouse embryos [1]; Mad2 MO microinjected,Neither treatment prevented development to blastocyst
same,number of micronuclei compared to controls,mouse embryos [1]; Mad2 MO-injected embryos vs Control MO,doubled
same,timing of meiosis-I (polar body extrusion),oocytes,characteristic acceleration of meiosis-I
